Legend:
Test in all cases: relative viability (nuclei count vs DMSO), 5 days (fraction); higher = more cells survive
ABC-1 = system: ABC-1
Summary of the method: (§1)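 Lung cancer cell lines were seeded in 1536-well plates and dosed by pin tool the next day, with either a single drug or a fixed anchor-drug dose combined with five library-drug doses (not always all listed) spaced in √10 steps. Five days later, one step fixed the cells and stained their nuclei (final 0.05% Triton X-100, 1% formaldehyde, 1 ug/ml Hoechst), and nuclei were counted on 4× images. Relative viability is the nuclei count in treated wells divided by the count in vehicle wells, and each value is the median of duplicate plates.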

COR-L23 = system: COR-L23
Summary of the method: as §1

EPLC-272H = system: EPLC-272H
Summary of the method: as §1

HARA = system: HARA
Summary of the method: as §1

HCC-15 = system: HCC-15
Summary of the method: as §1

HCC-78 = system: HCC-78
Summary of the method: as §1

LC-2-ad = system: LC-2-ad
Summary of the method: as §1

LU99A = system: LU99A
Summary of the method: as §1

NCI-H1651 = system: NCI-H1651
Summary of the method: as §1

NCI-H1915 = system: NCI-H1915
Summary of the method: as §1

NCI-H1993 = system: NCI-H1993
Summary of the method: as §1

NCI-H2009 = system: NCI-H2009
Summary of the method: as §1

NCI-H2085 = system: NCI-H2085
Summary of the method: as §1

NCI-H2126 = system: NCI-H2126
Summary of the method: as §1

NCI-H2342 = system: NCI-H2342
Summary of the method: as §1

NCI-H2347 = system: NCI-H2347
Summary of the method: as §1

NCI-H358 = system: NCI-H358
Summary of the method: as §1

NCI-H460 = system: NCI-H460
Summary of the method: as §1

NCI-H522 = system: NCI-H522
Summary of the method: as §1

NCI-H650 = system: NCI-H650
Summary of the method: as §1

NCI-H838 = system: NCI-H838
Summary of the method: as §1

PC-14 = system: PC-14
Summary of the method: as §1

SW 1573 = system: SW 1573
Summary of the method: as §1

UMC-11 = system: UMC-11
Summary of the method: as §1

Clc1ccc(Nc2nnc(Cc3ccncc3)c3ccccc23)cc1 [Vatalanib] + Cc1nc(Nc2ncc(C(=O)Nc3c(C)cccc3Cl)s2)cc(N2CCN(CCO)CC2)n1 [Dasatinib] (partner 0.075 µM)
relative viability (ABC-1; first compound 0.04 µM): 0.722 | relative viability (ABC-1; first compound 1.265 µM): 0.514 | relative viability (ABC-1; first compound 4 µM): 0.581 | relative viability (COR-L23; first compound 0.04 µM): 0.502 | relative viability (COR-L23; first compound 0.1265 µM): 0.502 | relative viability (COR-L23; first compound 0.4 µM): 0.651 | relative viability (COR-L23; first compound 1.265 µM): 0.414 | relative viability (COR-L23; first compound 4 µM): 0.519 | relative viability (EPLC-272H; first compound 0.04 µM): 0.441 | relative viability (EPLC-272H; first compound 0.1265 µM): 0.347 | relative viability (EPLC-272H; first compound 0.4 µM): 0.449 | relative viability (EPLC-272H; first compound 1.265 µM): 0.36 | relative viability (EPLC-272H; first compound 4 µM): 0.481 | relative viability (HARA; first compound 0.04 µM): 0.265 | relative viability (HARA; first compound 0.1265 µM): 0.214 | relative viability (HARA; first compound 0.4 µM): 0.284 | relative viability (HARA; first compound 1.265 µM): 0.212 | relative viability (HARA; first compound 4 µM): 0.248 | relative viability (HCC-15; first compound 0.04 µM): 0.611 | relative viability (HCC-15; first compound 0.1265 µM): 0.628 | relative viability (HCC-15; first compound 0.4 µM): 0.628 | relative viability (HCC-15; first compound 1.265 µM): 0.524 | relative viability (HCC-15; first compound 4 µM): 0.538 | relative viability (HCC-78; first compound 0.04 µM): 0.368 | relative viability (HCC-78; first compound 0.1265 µM): 0.325 | relative viability (HCC-78; first compound 0.4 µM): 0.333 | relative viability (HCC-78; first compound 1.265 µM): 0.368 | relative viability (HCC-78; first compound 4 µM): 0.383 | relative viability (LC-2-ad; first compound 0.04 µM): 0.739 | relative viability (LC-2-ad; first compound 0.1265 µM): 0.492 | relative viability (LC-2-ad; first compound 1.265 µM): 0.507 | relative viability (LC-2-ad; first compound 4 µM): 0.536 | relative viability (LU99A; first compound 0.04 µM): 0.499 | relative viability (LU99A; first compound 0.1265 µM): 0.58 | relative viability (LU99A; first compound 0.4 µM): 0.685 | relative viability (LU99A; first compound 1.265 µM): 0.44 | relative viability (LU99A; first compound 4 µM): 0.583 | relative viability (NCI-H1651; first compound 0.04 µM): 0.317 | relative viability (NCI-H1651; first compound 0.1265 µM): 0.31 | relative viability (NCI-H1651; first compound 0.4 µM): 0.421 | relative viability (NCI-H1651; first compound 1.265 µM): 0.462 | relative viability (NCI-H1651; first compound 4 µM): 0.372 | relative viability (NCI-H1915; first compound 0.04 µM): 0.322 | relative viability (NCI-H1915; first compound 0.1265 µM): 0.321 | relative viability (NCI-H1915; first compound 0.4 µM): 0.339 | relative viability (NCI-H1915; first compound 1.265 µM): 0.279 | relative viability (NCI-H1915; first compound 4 µM): 0.349 | relative viability (NCI-H1993; first compound 0.04 µM): 0.727 | relative viability (NCI-H1993; first compound 0.1265 µM): 0.651 | relative viability (NCI-H1993; first compound 0.4 µM): 0.574 | relative viability (NCI-H1993; first compound 1.265 µM): 0.552 | relative viability (NCI-H1993; first compound 4 µM): 0.578 | relative viability (NCI-H2009; first compound 0.04 µM): 0.288 | relative viability (NCI-H2009; first compound 0.1265 µM): 0.256 | relative viability (NCI-H2009; first compound 0.4 µM): 0.35 | relative viability (NCI-H2009; first compound 1.265 µM): 0.303 | relative viability (NCI-H2009; first compound 4 µM): 0.283 | relative viability (NCI-H2085; first compound 0.04 µM): 0.218 | relative viability (NCI-H2085; first compound 0.1265 µM): 0.226 | relative viability (NCI-H2085; first compound 0.4 µM): 0.277 | relative viability (NCI-H2085; first compound 1.265 µM): 0.188 | relative viability (NCI-H2085; first compound 4 µM): 0.258 | relative viability (NCI-H2126; first compound 0.04 µM): 0.609 | relative viability (NCI-H2126; first compound 0.1265 µM): 0.571 | relative viability (NCI-H2126; first compound 0.4 µM): 0.585 | relative viability (NCI-H2126; first compound 1.265 µM): 0.42 | relative viability (NCI-H2126; first compound 4 µM): 0.503 | relative viability (NCI-H2342; first compound 0.04 µM): 0.292 | relative viability (NCI-H2342; first compound 0.1265 µM): 0.324 | relative viability (NCI-H2342; first compound 0.4 µM): 0.278 | relative viability (NCI-H2342; first compound 1.265 µM): 0.312 | relative viability (NCI-H2342; first compound 4 µM): 0.295 | relative viability (NCI-H2347; first compound 0.04 µM): 0.295 | relative viability (NCI-H2347; first compound 0.1265 µM): 0.352 | relative viability (NCI-H2347; first compound 0.4 µM): 0.342 | relative viability (NCI-H2347; first compound 1.265 µM): 0.28 | relative viability (NCI-H2347; first compound 4 µM): 0.385 | relative viability (NCI-H358; first compound 0.04 µM): 0.164 | relative viability (NCI-H358; first compound 0.1265 µM): 0.194 | relative viability (NCI-H358; first compound 0.4 µM): 0.165 | relative viability (NCI-H358; first compound 1.265 µM): 0.162 | relative viability (NCI-H358; first compound 4 µM): 0.169 | relative viability (NCI-H460; first compound 0.04 µM): 0.558 | relative viability (NCI-H460; first compound 0.1265 µM): 0.498 | relative viability (NCI-H460; first compound 0.4 µM): 0.54 | relative viability (NCI-H460; first compound 1.265 µM): 0.351 | relative viability (NCI-H460; first compound 4 µM): 0.409 | relative viability (NCI-H522; first compound 0.04 µM): 0.843 | relative viability (NCI-H522; first compound 0.1265 µM): 0.857 | relative viability (NCI-H522; first compound 0.4 µM): 0.912 | relative viability (NCI-H522; first compound 1.265 µM): 1.04 | relative viability (NCI-H522; first compound 4 µM): 0.828 | relative viability (NCI-H650; first compound 0.04 µM): 0.434 | relative viability (NCI-H650; first compound 0.1265 µM): 0.448 | relative viability (NCI-H650; first compound 1.265 µM): 0.399 | relative viability (NCI-H650; first compound 4 µM): 0.434 | relative viability (NCI-H838; first compound 0.04 µM): 0.325 | relative viability (NCI-H838; first compound 0.1265 µM): 0.277 | relative viability (NCI-H838; first compound 0.4 µM): 0.292 | relative viability (NCI-H838; first compound 1.265 µM): 0.275 | relative viability (NCI-H838; first compound 4 µM): 0.273 | relative viability (PC-14; first compound 0.04 µM): 0.318 | relative viability (PC-14; first compound 0.1265 µM): 0.248 | relative viability (PC-14; first compound 0.4 µM): 0.34 | relative viability (PC-14; first compound 1.265 µM): 0.244 | relative viability (PC-14; first compound 4 µM): 0.245 | relative viability (SW 1573; first compound 0.04 µM): 0.73 | relative viability (SW 1573; first compound 0.1265 µM): 0.496 | relative viability (SW 1573; first compound 0.4 µM): 0.645 | relative viability (SW 1573; first compound 1.265 µM): 0.395 | relative viability (SW 1573; first compound 4 µM): 0.476 | relative viability (UMC-11; first compound 0.04 µM): 0.422 | relative viability (UMC-11; first compound 0.1265 µM): 0.496 | relative viability (UMC-11; first compound 0.4 µM): 0.444 | relative viability (UMC-11; first compound 1.265 µM): 0.442 | relative viability (UMC-11; first compound 4 µM): 0.45

— the supplement of paper PMC10307832
